The values below come from patent publication EP3539562A1, “IMMUNOTHERAPEUTIC PEPTIDES” (Eberhard Karls Universität Tübingen Medizinische Fakultät, priority 2018, dated 2019).

One assay has as its system IFN-β. Description: ELISA of supernatants of treated LNZ308 cells. It counts as cell-based, human. To be noted: LNZ308, CT-VT-RT with or without molecular inhibitors (BX795 10 µM, fludarabine 100 µM). Here is the method: LNZ308 cells were seeded as 3×10^6 cells per dish and treated with different regimens as described above, supernatants were harvested after 96 hpt and concentrated using Amicon Ultra-15 Ultracel-3K centrifugal filters (Merck Millipore, Billerica, USA) with subsequent determination of total protein concentration using Bradford protein assay (Bio-Rad Laboratories). The respective chemokine/cytokine concentrations were determined enzymatically per microgram of total protein using the respective DuoSet ELISA kits according to manufacturer's instructions (R&D Systems, Minneapolis, USA).

A further assay concerns STAT1. Description: qPCR mRNA expression in treated LNZ308 cells. It counts as cell-based, human. The note with it: inhibitor applied after CT-VT-RT treatment. The protocol: RNA extractions were performed using the RNeasy mini kit (Qiagen) and reversely transcribed to cDNA using High-Capacity RNA-to-cDNA kit (Thermo Fisher Scientific) according to manufacturer's instructions. For each qPCR reaction, 20 ng of cDNA were amplified with custom designed primers (Supplementary Table 1) and qPCR Mastermix Plus for SYBR Green (Eurogentec, Liege, Belgium) using the 7500 Fast Real time PCR system (Thermo Fisher Scientific). Relative gene expression was determined using the ΔΔ-CT method versus the housekeeping gene ARF1.
On the technique in general: In qPCR the cycle at which signal appears reflects the starting amount.

A further assay concerns phospho-STAT1 (Y701). Description: Immunoblot analysis after CT-VT-RT with signalling inhibitors. It counts as cell-based, human. The note with it: inhibitor added to CT-VT-RT (BX795 10 µM, fludarabine 100 µM). Here is the method:
Cells of interest were lysed in lysis buffer containing 25 mM Tris hydrochloric acid (Tris-HCI), 120 mM sodium chloride (NaCI), 5 mM ethylenediaminetetraacetic acid (EDTA), 0.5% NP-40 and phosphatase inhibitor cocktails (Sigma Aldrich). Proteins were separated on 4-12% polyacrylamide gels (Thermo Fisher Scientific) followed by transfer to PVDF membranes (Thermo Fisher Scientific). […] Antibody against TRAIL ([…]), LC3A ([…]) and β-tubulin (9F3) were purchased from Cell Signalling (Cell Signalling, Dan-vers, USA) and used at a dilution of 1:1,000. Anti-rabbit and Anti-mouse horseradish peroxidase coupled secondary antibodies were purchased from Abcam and used at a concentration of 1:5,000. TBK1/IKKε inhibitor, BX795 was purchased from Invivogen (Invivogen, San Diego, USA) and used at a concentration of 10 μM.
A general note: Immunoblotting shows a protein as a band on a membrane.

Another assay concerns LN229 cells. Put plainly: Acute cytotoxicity assay (cell viability, Cell titer blue). To be noted: Homo sapiens, LN-229, DMSO control. The class given is cell-based. The protocol: (§1) LN229 and LNZ308 were seeded as 5,000 cells per well in 96 well plates one day before treatment initiation. All treatments were carried out in serum-free DMEM along with their respective controls, and cell viability measured at 72 h post initial treatment (hpt) using Cell titer blue solution (Promega, Madison, USA) as per manufacturer's instructions. The measured values were converted to percentage cell viability by normalizing each treatment to its respective control within the individual regimen.
(§2) The monotherapies with γ-irradiation and MeV effected dose responses as expected (Fig. 9) and in accordance with cell viability observed previously (Fig. 4). The CT-VT-RT initiated synergistic effect was retained when substituting TMZ by lomustine/CCNU. […] The cell viability and dose dependence in the non-synergistic regimens were similar to those previously observed in triple regimens using TMZ (Fig. 5).

The test system of the next assay is LNZ308 cells. The assay is described as above. The class given is cell-based. To be noted: Homo sapiens, DMSO control. The protocol:
as §1, §2

For a further assay, the system named is GS8 cells. The assay is described as above. It counts as cell-based. To be noted: DMSO controls.
The target in assay [1] is T1, interferon regulatory factor 1 (IRF1) (UniProt P10914 1-325).
T1 sequence (looked up): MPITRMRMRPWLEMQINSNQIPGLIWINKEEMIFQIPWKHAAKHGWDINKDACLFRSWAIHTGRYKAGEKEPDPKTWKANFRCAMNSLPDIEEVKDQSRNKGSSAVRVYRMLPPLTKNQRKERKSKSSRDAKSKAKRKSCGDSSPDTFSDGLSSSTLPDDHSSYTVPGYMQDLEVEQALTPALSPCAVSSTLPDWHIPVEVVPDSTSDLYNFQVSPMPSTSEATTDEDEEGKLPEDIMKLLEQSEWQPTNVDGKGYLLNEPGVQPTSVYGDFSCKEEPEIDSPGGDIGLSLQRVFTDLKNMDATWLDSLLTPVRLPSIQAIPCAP
Description: proximity ligation assay in LNZ308 cells treated with CT-VT-RT plus fludarabine.

“Also recorded” adds a separate entry of the source.

In the case of `O=C(NCCCNc1nc(Nc2cccc(NC(=O)N3CCCC3)c2)ncc1I)c1cccs1` [BX795], the IFN-β protein result in the assay with IFN-β is “abolished; also recorded: complete loss of IFN-β production”. In addition, the STAT1 transcription entry in the assay on STAT1 is “downregulated”. For the same molecule, the STAT1 protein phosphorylation entry in the assay on phospho-STAT1 (Y701) is given as “downregulated; also recorded: complete loss of phospho-STAT1 (Y701)”.
As a reminder, the EC50 is the midpoint of the concentration-response curve. Turning to `O=NN(CCCl)C(=O)NC1CCCCC1` [CCNU, lomustine], the EC50 in the assay on LN229 cells is 16 µM; in the assay on LNZ308 cells it was 45 µM.
Regarding `Cn1nnc2c(C(N)=O)ncn2c1=O` [TMZ, temozolomide], a half-maximal response with GS8 cells (EC50) required 250 µM.

B1: basic leucine zipper transcriptional factor ATF2-like protein (BATF2) (other, UniProt Q8N1L9 1-274, looked up)
chain: MHLCGGNGLLTQTDPKEQQRQLKKQKNRAAAQRSRQKHTDKADALHQQHESLEKDNLALRKEIQSLQAELAWWSRTLHVHERLCPMDCASCSAPGLLGCWDQAEGLLGPGPQGQHGCREQLELFQTPGSCYPAQPLSPGPQPHDSPSLLQCPLPSLSLGPAVVAEPPVQLSPSPLLFASHTGSSLQGSSSKLSALQPSLTAQTAPPQPLELEHPTRGKLGSSPDNPSSALGLARLQSREHKPALSAATWQGLVVDPSPHPLLAFPLLSSAQVHF
Regarding B1, the binding result in assay [1] was “binds”.
